Measurements from US20230301893A1, “Hair Growth and Scalp Preparations” (priority 2020, published 2023).
No end group written: not given here.

What was measured:
[1] = Isoelectric point of the peptide; format: physicochemical
endothelial cells = experiment: MTT (tetrazolium) endothelial cell proliferation assay; format: cell-based; details: 10 ng/ml; 4 hours and 24 hours tested
Experimental: The effects of TB4 and TA1 on endothelial cell proliferation were determined using a MTT (tetrazolium) assay. The results are shown in FIG. 2 for 4 hours and 24 hours and for three concentrations of these peptides, 10 ng/ml, 100 ng/ml, and 1000 ng/ml. […] At a concentration of 10 ng/ml, TB4 and TA1 maximally stimulated cell proliferation approximately 2-fold and 3-fold over that of the control, respectively.

[2] = system: normal human vascular endothelial cells (NHVEC); experiment: Boyden chamber migration assay; format: cell-based; details: for Cell Number per HPF, Chamber 1 / Cell Number per HPF, Chamber 2 / Cell Number per HPF, Chamber 3 / Cell Number per HPF, Mean: 5×10^4 cells per well; for cell migration over migration in the presence of media alone / migration response compared to three positive controls (VEGF, PDGF, FGF): 100 ng/ml
Experimental: The effects of TB4 and TA1 on endothelial cell migration were determined. To investigate the possibility that these peptides effect the migration of normal human vascular endothelial cells (NHVEC) in vitro, a Boyden chamber migration assay was performed.
In the experiments of Table 1 and FIG. 1, normal human microvesicular endothelial cells are used at 5×10^4 cells per well. The wells are coated with 100 µg/ml […] Type IV.

Substance: Ac-SDAAVDTSSEITTKDLKEKKEVVEEAEN (Ac-SDAAVDTSSEITTKDLKEKKEVVEEAEN) [TA1, may be derived by cleavage of thymosin]
- isoelectric point [1]: 4.1
- maximal stimulation of cell proliferation over that of the control (endothelial cells): ~3 fold
- Cell Number per HPF, Chamber 1 ([2]; 0.1 µg/ml): 38 per HPF
- Cell Number per HPF, Chamber 2 ([2]; 0.1 µg/ml): 45 per HPF
- Cell Number per HPF, Chamber 3 ([2]; 0.1 µg/ml): 33 per HPF
- Cell Number per HPF, Mean ([2]; 0.1 µg/ml): 39 per HPF
- cell migration over migration in the presence of media alone [2]: significantly enhanced
- migration response compared to three positive controls (VEGF, PDGF, FGF) [2]: heightened responses
- Cell Number per HPF, Chamber 1 ([2]; 0.5 µg/ml): 52 per HPF
- Cell Number per HPF, Chamber 2 ([2]; 0.5 µg/ml): 53 per HPF
- Cell Number per HPF, Chamber 3 ([2]; 0.5 µg/ml): 57 per HPF
- Cell Number per HPF, Mean ([2]; 0.5 µg/ml): 54 per HPF
- Cell Number per HPF, Chamber 1 ([2]; 1 µg/ml): 64 per HPF
- Cell Number per HPF, Chamber 2 ([2]; 1 µg/ml): 69 per HPF
- Cell Number per HPF, Chamber 3 ([2]; 1 µg/ml): 43 per HPF
- Cell Number per HPF, Mean ([2]; 1 µg/ml): 59 per HPF
- Cell Number per HPF, Chamber 1 ([2]; 5 µg/ml): 35 per HPF
- Cell Number per HPF, Chamber 2 ([2]; 5 µg/ml): 64 per HPF
- Cell Number per HPF, Chamber 3 ([2]; 5 µg/ml): 72 per HPF
- Cell Number per HPF, Mean ([2]; 5 µg/ml): 57 per HPF
- Cell Number per HPF, Chamber 1 ([2]; 10 µg/ml): 51 per HPF
- Cell Number per HPF, Chamber 2 ([2]; 10 µg/ml): 55 per HPF
- Cell Number per HPF, Chamber 3 ([2]; 10 µg/ml): 66 per HPF
- Cell Number per HPF, Mean ([2]; 10 µg/ml): 57 per HPF
- concentration of maximal effect on migration ([2]; dose response): 100 ng/mL

Substance: Ac-ANKGQAPGEAMKPSFLKEKKEVVERSKEEEGPAKMNLVIEMPKD (Ac-ANKGQAPGEAMKPSFLKEKKEVVERSKEEEGPAKMNLVIEMPKD) [TB4]
- cell migration over migration in the presence of media alone [2]: significantly enhanced
- migration response compared to three positive controls (VEGF, PDGF, FGF) [2]: heightened responses
